“And” between values parts separate entries of the source, which are not always exact repeats. Equal values may be shown once.
Assay: molar heat capacity at constant pressure
Conditions: 101.33 kPa, Vacuum adiabatic calorimetry

Cc1ccc(-c2ccccc2)cc1 [4-methylbiphenyl]
Conditions	molar heat capacity at constant pressure
200.03 K, Crystal 2	158.25 J/K/mol
201.21 K, Crystal 2	159.08 J/K/mol
202.67 K, Crystal 2	160.39 J/K/mol
204.13 K, Crystal 2	161.16 J/K/mol
205.59 K, Crystal 2	161.88 J/K/mol
207.05 K, Crystal 2	163.01 J/K/mol
208.5 K, Crystal 2	164.47 J/K/mol
209.95 K, Crystal 2	165.42 J/K/mol
211.41 K, Crystal 2	166.95 J/K/mol
212.86 K, Crystal 2	167.72 J/K/mol
214.31 K, Crystal 2	168.81 J/K/mol
215.75 K, Crystal 2	169.75 J/K/mol
217.19 K, Crystal 2	170.91 J/K/mol
218.63 K, Crystal 2	172.34 J/K/mol
220.07 K, Crystal 2	173.54 J/K/mol
221.51 K, Crystal 2	174.81 J/K/mol
224.33 K, Crystal 2	177.09 J/K/mol
225.77 K, Crystal 2	178.63 J/K/mol
227.21 K, Crystal 2	179.26 J/K/mol
228.64 K, Crystal 2	180.46 J/K/mol
230.07 K, Crystal 2	181.65 J/K/mol
231.5 K, Crystal 2	183.05 J/K/mol
232.92 K, Crystal 2	183.59 J/K/mol
234.35 K, Crystal 2	184.76 J/K/mol
235.77 K, Crystal 2	186 J/K/mol
237.2 K, Crystal 2	186.68 J/K/mol
238.62 K, Crystal 2	188.83 J/K/mol
240.04 K, Crystal 2	189.96 J/K/mol
241.46 K, Crystal 2	190.95 J/K/mol
242.88 K, Crystal 2	191.92 J/K/mol
245.71 K, Crystal 2	194.12 J/K/mol
247.06 K, Crystal 2	195.69 J/K/mol
248.47 K, Crystal 2	196.82 J/K/mol
249.87 K, Crystal 2	197.8 J/K/mol
251.28 K, Crystal 2	198.95 J/K/mol
252.68 K, Crystal 2	199.51 J/K/mol
254.07 K, Crystal 2	203.15 J/K/mol
255.46 K, Crystal 2	205.87 J/K/mol
256.86 K, Crystal 2	204.64 J/K/mol
258.26 K, Crystal 2	207.95 J/K/mol
259.65 K, Crystal 2	209.9 J/K/mol
261.05 K, Crystal 2	211.67 J/K/mol
262.45 K, Crystal 2	213.5 J/K/mol
263.84 K, Crystal 2	216.69 J/K/mol
265.26 K, Crystal 2	218.04 J/K/mol
265.74 K, Crystal 2	214.98 J/K/mol
266.62 K, Crystal 2	215.48 J/K/mol
267.35 K, Crystal 2	216.35 J/K/mol
268.06 K, Crystal 2	216.34 J/K/mol
268.77 K, Crystal 2	218.41 J/K/mol
269.46 K, Crystal 2	217.65 J/K/mol
270.14 K, Crystal 2	220.43 J/K/mol
270.81 K, Crystal 2	221.73 J/K/mol
271.48 K, Crystal 2	224.8 J/K/mol
272.13 K, Crystal 2	226.98 J/K/mol
272.79 K, Crystal 2	228.68 J/K/mol
273.44 K, Crystal 2	230.85 J/K/mol
274.09 K, Crystal 2	231.46 J/K/mol
274.73 K, Crystal 2	233.58 J/K/mol
275.38 K, Crystal 2	235.91 J/K/mol
276.02 K, Crystal 2	236.58 J/K/mol
276.54 K, Crystal 2	238.77 J/K/mol
277.18 K, Crystal 2	240.39 J/K/mol
277.82 K, Crystal 2	243.02 J/K/mol
278.45 K, Crystal 2	244.38 J/K/mol
279.09 K, Crystal 2	245.39 J/K/mol
279.72 K, Crystal 2	247.06 J/K/mol
280.35 K, Crystal 2	249.06 J/K/mol
280.98 K, Crystal 2	250.28 J/K/mol
281.61 K, Crystal 2	250.82 J/K/mol
282.22 K, Crystal 2	253.9 J/K/mol
282.84 K, Crystal 2	255.25 J/K/mol
283.47 K, Crystal 2	256.25 J/K/mol
284.09 K, Crystal 2	257.26 J/K/mol
284.71 K, Crystal 2	258.2 J/K/mol
285.32 K, Crystal 2	261 J/K/mol
285.94 K, Crystal 2	262.67 J/K/mol
286.41 K, Crystal 2	265.19 J/K/mol
287.03 K, Crystal 2	266.14 J/K/mol
287.64 K, Crystal 2	267.86 J/K/mol
288.24 K, Crystal 2	270.21 J/K/mol
289.45 K, Crystal 2	271.63 J/K/mol
290.05 K, Crystal 2	274.89 J/K/mol
290.65 K, Crystal 2	278.67 J/K/mol
291.25 K, Crystal 2	281.37 J/K/mol
291.85 K, Crystal 2	283.3 J/K/mol
292.44 K, Crystal 2	287.63 J/K/mol
293.04 K, Crystal 2	291.45 J/K/mol
293.63 K, Crystal 2	298.7 J/K/mol
294.21 K, Crystal 2	301.08 J/K/mol
294.8 K, Crystal 2	306.74 J/K/mol
295.38 K, Crystal 2	315.73 J/K/mol
295.81 K, Crystal 2	323.56 J/K/mol
296.38 K, Crystal 2	356.89 J/K/mol
296.78 K, Crystal 2	604.38 J/K/mol
298.45 K, Crystal 1	252.48 J/K/mol
299.16 K, Crystal 1	242.36 J/K/mol
299.72 K, Crystal 1	239.35 J/K/mol
300.27 K, Crystal 1	238.79 J/K/mol
300.79 K, Crystal 1	244.43 J/K/mol
301.28 K, Crystal 1	240.52 J/K/mol
301.77 K, Crystal 1	242.22 J/K/mol
302.25 K, Crystal 1	243.96 J/K/mol
302.73 K, Crystal 1	242.88 J/K/mol
303.21 K, Crystal 1	243.63 J/K/mol
303.43 K, Crystal 1	242.23 J/K/mol
303.9 K, Crystal 1	242.44 J/K/mol
304.37 K, Crystal 1	241.56 J/K/mol
304.84 K, Crystal 1	243.77 J/K/mol
305.31 K, Crystal 1	244.44 J/K/mol
305.78 K, Crystal 1	244.15 J/K/mol
306.24 K, Crystal 1	244.23 J/K/mol
306.7 K, Crystal 1	245.51 J/K/mol
307.16 K, Crystal 1	246.05 J/K/mol
307.62 K, Crystal 1	246.17 J/K/mol
308.08 K, Crystal 1	246.5 J/K/mol
308.53 K, Crystal 1	247 J/K/mol
308.98 K, Crystal 1	247.25 J/K/mol
309.43 K, Crystal 1	248.47 J/K/mol
309.88 K, Crystal 1	249.54 J/K/mol
310.32 K, Crystal 1	249.25 J/K/mol
310.48 K, Crystal 1	249.45 J/K/mol
310.92 K, Crystal 1	251.3 J/K/mol
311.36 K, Crystal 1	251.5 J/K/mol
312.31 K, Crystal 1	256.21 J/K/mol
313.97 K, Crystal 1	264.83 J/K/mol
314.78 K, Crystal 1	273.5 J/K/mol
315.57 K, Crystal 1	291.72 J/K/mol
321.28 K, Liquid	289.67 J/K/mol
322.04 K, Liquid	290.27 J/K/mol
322.79 K, Liquid	290.67 J/K/mol
323.53 K, Liquid	290.73 J/K/mol
324.28 K, Liquid	291.55 J/K/mol
325.01 K, Liquid	291.28 J/K/mol
325.74 K, Liquid	291.46 J/K/mol
326.47 K, Liquid	293.2 J/K/mol
327.19 K, Liquid	292.01 J/K/mol
327.91 K, Liquid	293.22 J/K/mol
328.27 K, Liquid	292.87 J/K/mol
328.98 K, Liquid	293.44 J/K/mol
329.68 K, Liquid	293.4 J/K/mol
330.38 K, Liquid	294.27 J/K/mol
331.07 K, Liquid	293.42 J/K/mol
331.76 K, Liquid	294.54 J/K/mol
332.45 K, Liquid	294.83 J/K/mol
333.13 K, Liquid	295.75 J/K/mol
333.8 K, Liquid	295.68 J/K/mol
334.47 K, Liquid	295.42 J/K/mol
336.41 K, Liquid	298.11 J/K/mol
337.06 K, Liquid	298.19 J/K/mol
337.7 K, Liquid	298.22 J/K/mol
338.34 K, Liquid	298.05 J/K/mol
338.57 K, Liquid	298.82 J/K/mol
339.03 K, Liquid	300.03 J/K/mol
339.2 K, Liquid	299.1 J/K/mol
340.45 K, Liquid	299.61 J/K/mol
341.07 K, Liquid	299.94 J/K/mol
341.68 K, Liquid	301.45 J/K/mol
342.29 K, Liquid	300.21 J/K/mol
342.89 K, Liquid	301.42 J/K/mol
343.49 K, Liquid	302.55 J/K/mol
344.08 K, Liquid	301.94 J/K/mol
344.67 K, Liquid	303 J/K/mol
345.25 K, Liquid	303.08 J/K/mol
346.41 K, Liquid	304.11 J/K/mol
346.98 K, Liquid	304.03 J/K/mol
347.55 K, Liquid	304.56 J/K/mol
347.66 K, Liquid	303.66 J/K/mol
348.78 K, Liquid	306.1 J/K/mol
349.3 K, Liquid	305.23 J/K/mol
349.88 K, Liquid	305.3 J/K/mol
350.42 K, Liquid	305.41 J/K/mol
350.96 K, Liquid	306.68 J/K/mol
351.49 K, Liquid	306.74 J/K/mol
352.02 K, Liquid	307.44 J/K/mol
352.55 K, Liquid	307.72 J/K/mol
353.07 K, Liquid	307.31 J/K/mol
353.59 K, Liquid	308.24 J/K/mol
354.1 K, Liquid	307.67 J/K/mol
354.61 K, Liquid	308.41 J/K/mol
355.12 K, Liquid	308.12 J/K/mol
355.62 K, Liquid	308.6 J/K/mol and 307.85 J/K/mol
356.11 K, Liquid	307.9 J/K/mol
356.61 K, Liquid	309.76 J/K/mol
357.09 K, Liquid	308.25 J/K/mol
357.58 K, Liquid	309.03 J/K/mol
358.05 K, Liquid	309.85 J/K/mol
358.53 K, Liquid	309.78 J/K/mol
359 K, Liquid	309.73 J/K/mol
359.47 K, Liquid	309.75 J/K/mol
359.53 K, Liquid	309.84 J/K/mol
360.39 K, Liquid	310.32 J/K/mol
360.84 K, Liquid	311.4 J/K/mol
361.29 K, Liquid	311.64 J/K/mol
361.74 K, Liquid	310.99 J/K/mol
362.18 K, Liquid	311.55 J/K/mol
362.52 K, Liquid	311.51 J/K/mol
362.62 K, Liquid	311.89 J/K/mol
362.96 K, Liquid	311.52 J/K/mol
363.39 K, Liquid	310.96 J/K/mol
365.49 K, Liquid	313.17 J/K/mol
365.9 K, Liquid	312.29 J/K/mol
366.3 K, Liquid	313.49 J/K/mol
366.7 K, Liquid	314.04 J/K/mol
367.1 K, Liquid	313.11 J/K/mol
367.49 K, Liquid	314.44 J/K/mol
367.88 K, Liquid	314.05 J/K/mol
368.27 K, Liquid	313.75 J/K/mol
368.45 K, Liquid	313.66 J/K/mol
368.65 K, Liquid	313.35 J/K/mol
368.82 K, Liquid	312.67 J/K/mol
369.2 K, Liquid	314.01 J/K/mol
369.57 K, Liquid	314.85 J/K/mol
369.94 K, Liquid	314.67 J/K/mol
370.3 K, Liquid	314.64 J/K/mol
370.66 K, Liquid	315.15 J/K/mol
371.02 K, Liquid	314.85 J/K/mol
371.37 K, Liquid	314.45 J/K/mol
371.71 K, Liquid	316.2 J/K/mol
372.06 K, Liquid	315.57 J/K/mol
372.39 K, Liquid	315.1 J/K/mol

From the NIST ThermoML archive (doi:10.1016/j.jct.2010.05.002)
